Assay results from US20090291977A1, “Chromane Derivatives Useful As Acid Pump Antagonists” (priority 2004, published 2009).

The molecules below were run against T1, Porcine gastric H+/K+-ATPase (Sus scrofa, UniProt P19156) (assay: Ion-leaky porcine gastric H+/K+-ATPase inhibition). Conditions: ion-leaky vesicles, 5 mM KCl, pH 6.4, 37° C., 30 minutes.
T1 construct: The gastric vesicles were collected from interface on 0.25 M sucrose layer containing 7% Ficoll; from tissue; host or cells: mucous membrane of fresh porcine stomachs (gastric vesicles)
Format: biochemical
Procedure: The porcine gastric vesicles for Porcine gastric H^+/K^+-ATPase inhibition assays were prepared from mucous membrane in fresh porcine stomachs by homogenization with a tight-fitted polytetrafluoroethylene (Teflone®) homogenizer in 0.25 M sucrose at 4° C. The crude pellet was removed with centrifugation at 20,000 g for 30 min. Then supernatant was centrifuged at 100,000 g for 30 min. The resulting pellet was re-suspended in 0.25 M sucrose, and then subjected to density gradient centrifugation at 132,000 g for 90 min. The gastric vesicles were collected from interface on 0.25 M sucrose layer containing 7% Ficoll™ PM400(Amersham Biosciences). This procedure was performed in a cold room.
Ion-leaky porcine gastric H^+/K^+-ATPase-inhibition was measured according to the modified method described in Biochemical Pharmacology, 1988, 37, 2231-2236.
The isolated vesicles were lyophilized, and then kept in deep-freezer until use. For enzyme assay, lyophilized vesicles were reconstituted with 3 mM MgSO4 containing 40 mM Bis-tris (pH 6.4 at 37° C.).
Enzyme reaction was performed incubating 5 mM KCl, 3 mM Na2ATP, 3 mM MgSO4 and 1.0 μg of reconstituted vesicles for 30 minutes at 37° C. in a final 60 μl of reaction mixture (40 mM Bis-tris, pH 6.4) with or without the test compound. Enzyme reaction was stopped by adding 10% sodium dodecyl sulphate (SDS). Released inorganic phosphate from ATP was detected by incubation with mixture of 1 part of 35 mM ammonium molybdate tetrahydrate in 15 mM Zinc acetate hydrate and 4 parts of 10% ascorbic acid (pH 5.0), resulting in phosphomolybdate, which has optical density at 750 nm.

T1 sequence (P19156 2-1034 limits assumed): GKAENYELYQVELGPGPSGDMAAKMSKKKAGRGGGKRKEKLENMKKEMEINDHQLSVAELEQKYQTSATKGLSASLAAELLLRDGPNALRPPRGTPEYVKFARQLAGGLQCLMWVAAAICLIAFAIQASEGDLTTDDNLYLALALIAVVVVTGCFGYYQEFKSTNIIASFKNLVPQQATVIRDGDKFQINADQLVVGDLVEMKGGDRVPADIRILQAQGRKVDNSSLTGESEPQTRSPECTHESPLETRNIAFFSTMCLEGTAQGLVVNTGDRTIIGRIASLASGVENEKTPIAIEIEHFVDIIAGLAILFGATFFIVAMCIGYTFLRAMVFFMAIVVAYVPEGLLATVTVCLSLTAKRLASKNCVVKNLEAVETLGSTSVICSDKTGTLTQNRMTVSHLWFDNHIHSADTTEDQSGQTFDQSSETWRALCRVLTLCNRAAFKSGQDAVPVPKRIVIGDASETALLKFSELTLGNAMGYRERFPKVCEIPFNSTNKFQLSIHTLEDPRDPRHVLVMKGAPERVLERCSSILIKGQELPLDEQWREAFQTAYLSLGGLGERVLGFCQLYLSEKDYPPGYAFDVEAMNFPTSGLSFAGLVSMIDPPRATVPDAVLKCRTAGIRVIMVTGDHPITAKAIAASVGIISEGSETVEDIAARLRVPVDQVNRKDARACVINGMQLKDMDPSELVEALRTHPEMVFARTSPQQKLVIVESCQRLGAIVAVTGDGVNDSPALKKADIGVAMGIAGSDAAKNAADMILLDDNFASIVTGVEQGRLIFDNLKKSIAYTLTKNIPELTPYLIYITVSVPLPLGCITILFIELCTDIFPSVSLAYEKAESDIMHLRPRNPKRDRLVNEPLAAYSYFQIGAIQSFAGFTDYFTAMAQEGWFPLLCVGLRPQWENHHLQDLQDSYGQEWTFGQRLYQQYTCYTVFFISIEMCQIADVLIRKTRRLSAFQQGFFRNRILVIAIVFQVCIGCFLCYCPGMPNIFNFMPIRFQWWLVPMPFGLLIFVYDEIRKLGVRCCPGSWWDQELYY
T1 sequence (P18434 whole entry partner): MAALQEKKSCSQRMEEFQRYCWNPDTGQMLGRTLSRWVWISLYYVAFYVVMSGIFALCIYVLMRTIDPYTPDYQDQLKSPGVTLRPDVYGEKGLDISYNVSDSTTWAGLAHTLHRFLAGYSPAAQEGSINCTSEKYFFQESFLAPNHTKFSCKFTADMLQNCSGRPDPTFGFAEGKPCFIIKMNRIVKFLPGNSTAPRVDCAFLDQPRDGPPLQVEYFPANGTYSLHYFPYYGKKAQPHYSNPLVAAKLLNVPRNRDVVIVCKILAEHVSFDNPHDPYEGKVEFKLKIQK

Row | SMILES | IC50 [µM]
1 | Cc1cccc2c1C(Nc1cc(C(=O)N(C)CCO)cn3c(C)c(C)nc13)CCO2 (single isomer, unassigned; (+)) [Example 5-3, (+)-N-(2-Hydroxyethyl)-N,2,3-trimethyl-8-[(5-methyl-3,4-dihydro-2H-chromen-4-yl)amino]imidazo[1,2-a]pyridine-6-carboxamide] | 0.093
2 | Cc1cccc2c1C(Nc1cc(C(=O)N(C)C)cn3c(C)c(C)nc13)CCO2 (single isomer, unassigned) [Example 17-3, N,N,2,3-Tetramethyl-8-[(5-methyl-3,4-dihydro-2H-chromen-4-yl)amino]imidazo[1,2-a]pyridine-6-carboxamide] | 0.091
3 | Cc1nc2c(NC3CCOc4cccc(F)c43)cc(C(=O)N(C)CCO)cn2c1C (single isomer, unassigned) [Example 11-2, 8-[(5-Fluoro-3,4-dihydro-2H-chromen-4-yl)amino]-N-(2-hydroxyethyl)-N,2,3-trimethylimidazo[1,2-a]pyridine-6-carboxamide] | 0.0538
4 | Cc1cccc2c1C(Nc1cc(C(=O)N(C)C)cn3c(C)c(C)nc13)CCO2 (racemic) [Example 17-1, N,N,2,3-Tetramethyl-8-[(5-methyl-3,4-dihydro-2H-chromen-4-yl)amino]imidazo[1,2-a]pyridine-6-carboxamide] | 0.064

Continued, values first:

Row | IC50 [µM] | SMILES
5 | 0.064 | Cc1nc2c(NC3CCOc4ccccc43)cc(C(=O)N(C)CCO)cn2c1C (single isomer, unassigned; (+)) [Example 2-3, (+)-8-(3,4-Dihydro-2H-chromen-4-ylamino)-N-(2-hydroxyethyl)-N,2,3-trimethylimidazo[1,2-a]pyridine-6-carboxamide]
6 | 0.101 | Cc1nc2c(NC3CCOc4cccc(F)c43)cc(C(=O)N(C)CCO)cn2c1C (single isomer, unassigned) [Example 11-3, 8-[(5-Fluoro-3,4-dihydro-2H-chromen-4-yl)amino]-N-(2-hydroxyethyl)-N,2,3-trimethylimidazo[1,2-a]pyridine-6-carboxamide]

Each molecule was assayed on acid secretion in the gastric lumen-perfused rat (assay: Inhibition of acid secretion in the gastric lumen-perfused rat). Conditions: Sprague-Dawley rat, pentagastrin-stimulated acid secretion, intravenous bolus or intraduodenal administration.
Format: in vivo
Procedure: Acid secretion in the gastric lumen-perfused rat was measured according to Watanabe et al. [Watanabe K et al., J. Physiol. (Paris) 2000; 94: 111-116].
Male Sprague-Dawley rats, 8 weeks old, deprived of food for 18 hours before the experiment with free access to water, were anesthetized with urethane (1.4 g/kg, i.p.) and tracheotomized. After a middle abdominal incision, a dual polyethylene cannula was inserted into the forestomach and the stomach was perfused with saline (37° C., pH 5.0) at a rate of 1 ml/min. The acid output in the perfusate was determined at 5 minutes interval by titration with 0.02 M NaOH to pH 5.0. After the determination of basal acid secretion for 30 min, the acid secretion was stimulated by a continuous intravenous infusion of pentagastrin (16 μg/kg/h). The test compounds were administered by an intravenous bolus injection or intraduodenal administration after the stimulated acid secretion reached a plateau phase. The acid secretion was monitored after the administration.

Row | SMILES | inhibitory activity (inhibition of acid secretion)
7 | Cc1cccc2c1C(Nc1cc(C(=O)N(C)CCO)cn3c(C)c(C)nc13)CCO2 (single isomer, unassigned; (+)) [Example 5-3, (+)-N-(2-Hydroxyethyl)-N,2,3-trimethyl-8-[(5-methyl-3,4-dihydro-2H-chromen-4-yl)amino]imidazo[1,2-a]pyridine-6-carboxamide] | good inhibitory activity
